Experimental data from US10301304B2, “Selective inhibitor of phosphatidylinositol 3-kinase-gamma” (VERTEX PHARMACEUTICALS INCORPORATED, priority 2013, dated 2019).
Where two headings read alike, the source gives them in different places.

Legend:
PI3K-α = PI3K-α (Homo sapiens, UniProt P42336); test: PI3K Inhibition Assay; format: biochemical
Protocol: (§1) Using a Biomek FX from Beckman Coulter, 1.5 μL of each of ten 2.5-fold serial dilutions of the compound of the invention in 100% DMSO was added to an individual well (hereafter, “test well”) in a 96 well polystyrene plate [Corning, Costar Item No. 3697]. One test well also contained 1.5 μL of DMSO with no compound. […] Using a Titertek Multidrop, 50 μL of Reaction Mix [100 mM HEPES pH 7.5, 50 mM NaCl, 10 mM DTT, 0.2 mg/mL BSA, 60 μM phosphatidylinositol(4,5)-bisphosphate diC16 (PI(4,5)P2; Avanti Polar Lipids, Cat. No. 840046P) and PI3K isoform of interest (see Table 1 for isoform concentrations)] was added to each well. To initiate the reaction, 50 μL of ATP Mix [20 mM MgCl2, 6 μM ATP (100 μCi/μmole ^33P-ATP was added to each well, followed by incubating the wells for 30 min. at 25° C. Final concentrations in each well were 50 mM HEPES 7.5, 10 mM MgCl2, 25 mM NaCl, 5 mM DTT, 0.1 mg/mL BSA, 30 μM PI(4,5)P2, 3 μM ATP, and the PI3K isoform of interest (see Table 2). Final compound concentrations in each well ranged from 10 μM to 1 nM.
(§2) After incubation, the reactions in each well were quenched by addition of 50 μL of stop solution [30% TCA/Water, 10 mM ATP]. Each quenched reaction mixture was then transferred to a 96 well glass fiber filter plate [Corning, Costar Item No. 3511]. The plate was vacuum-filtered and washed three times with 150 μL of 5% TCA/water in a modified Bio-Tek Instruments ELX-405 Auto Plate Washer. 50 μL of scintillation fluid was added to each well and the plate read on a Perkin-Elmer TopCount™ NXT liquid scintillation counter to obtain ^33P-counts representing inhibition values.
(§3) The value for the background well was subtracted from the value obtained for each test well and the data were fit to the competitive tight binding Ki equation described by Morrison and Stone, Comments Mol. Cell Biophys. 2: 347-368, 1985. […] In addition, isoform selectivity was also seen as Compound 1 was tested against PI3K-alpha, PI3K-beta, and PI3K-delta isoforms and was determined to have a selectivity of greater than 15 fold for PI3K-gamma as shown in Table 2.

PI3K-β = PI3K-β (Homo sapiens, UniProt P42338); test: PI3K Inhibition Assay; format: biochemical
Chain of PI3K-β (P42338 whole entry, species assumed): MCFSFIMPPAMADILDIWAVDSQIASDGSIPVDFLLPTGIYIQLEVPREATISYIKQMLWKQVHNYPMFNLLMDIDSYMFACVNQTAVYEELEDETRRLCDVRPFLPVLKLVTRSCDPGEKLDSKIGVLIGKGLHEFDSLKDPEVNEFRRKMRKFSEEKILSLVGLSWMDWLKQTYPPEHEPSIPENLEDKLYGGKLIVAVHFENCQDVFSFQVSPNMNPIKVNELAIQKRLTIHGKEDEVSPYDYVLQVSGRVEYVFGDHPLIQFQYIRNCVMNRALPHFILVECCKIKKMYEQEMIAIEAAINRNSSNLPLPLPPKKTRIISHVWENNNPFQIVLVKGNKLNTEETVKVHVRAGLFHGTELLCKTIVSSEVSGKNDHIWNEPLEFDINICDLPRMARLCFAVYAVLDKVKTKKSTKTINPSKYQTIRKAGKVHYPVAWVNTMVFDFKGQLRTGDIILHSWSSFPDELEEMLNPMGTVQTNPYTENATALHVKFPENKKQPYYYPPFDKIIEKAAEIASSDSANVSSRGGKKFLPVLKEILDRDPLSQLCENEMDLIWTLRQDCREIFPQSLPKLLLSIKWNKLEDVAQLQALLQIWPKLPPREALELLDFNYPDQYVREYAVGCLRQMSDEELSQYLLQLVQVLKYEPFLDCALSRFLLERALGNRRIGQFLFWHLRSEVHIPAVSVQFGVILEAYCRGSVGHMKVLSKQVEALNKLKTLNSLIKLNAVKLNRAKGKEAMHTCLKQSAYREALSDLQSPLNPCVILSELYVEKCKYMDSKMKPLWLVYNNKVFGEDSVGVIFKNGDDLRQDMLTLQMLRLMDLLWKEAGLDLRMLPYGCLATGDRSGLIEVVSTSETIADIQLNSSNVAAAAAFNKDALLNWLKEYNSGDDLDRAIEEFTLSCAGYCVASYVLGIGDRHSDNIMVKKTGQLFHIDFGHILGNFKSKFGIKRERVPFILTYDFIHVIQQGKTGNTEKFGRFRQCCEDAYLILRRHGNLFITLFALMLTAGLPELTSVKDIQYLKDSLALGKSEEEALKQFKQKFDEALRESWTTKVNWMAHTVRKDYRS
Chain of PI3K-β (P27986 whole entry partner, species assumed): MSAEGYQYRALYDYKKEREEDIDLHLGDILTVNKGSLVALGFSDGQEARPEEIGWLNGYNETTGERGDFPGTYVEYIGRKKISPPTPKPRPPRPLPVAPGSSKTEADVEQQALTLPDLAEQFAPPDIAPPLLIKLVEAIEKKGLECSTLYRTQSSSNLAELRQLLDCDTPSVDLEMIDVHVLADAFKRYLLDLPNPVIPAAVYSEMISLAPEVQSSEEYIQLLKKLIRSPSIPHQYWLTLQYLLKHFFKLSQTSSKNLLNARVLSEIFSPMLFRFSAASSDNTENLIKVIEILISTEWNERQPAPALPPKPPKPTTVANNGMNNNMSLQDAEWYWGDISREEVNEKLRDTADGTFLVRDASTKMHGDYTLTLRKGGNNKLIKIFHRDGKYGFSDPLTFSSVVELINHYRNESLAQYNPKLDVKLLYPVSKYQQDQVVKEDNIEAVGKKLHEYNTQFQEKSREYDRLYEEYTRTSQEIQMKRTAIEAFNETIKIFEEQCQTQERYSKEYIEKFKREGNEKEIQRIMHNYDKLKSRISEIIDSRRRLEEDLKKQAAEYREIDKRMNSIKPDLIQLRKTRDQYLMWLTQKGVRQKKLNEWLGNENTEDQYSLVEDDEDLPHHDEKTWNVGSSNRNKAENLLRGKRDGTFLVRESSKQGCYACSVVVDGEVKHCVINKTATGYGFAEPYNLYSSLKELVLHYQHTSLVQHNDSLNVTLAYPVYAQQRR
Protocol: as §1, §2, §3

PI3K-γ = PI3K-γ (Homo sapiens, UniProt P48736); test: PI3K Inhibition Assay; format: biochemical
Chain of PI3K-γ (P48736 whole entry, species assumed): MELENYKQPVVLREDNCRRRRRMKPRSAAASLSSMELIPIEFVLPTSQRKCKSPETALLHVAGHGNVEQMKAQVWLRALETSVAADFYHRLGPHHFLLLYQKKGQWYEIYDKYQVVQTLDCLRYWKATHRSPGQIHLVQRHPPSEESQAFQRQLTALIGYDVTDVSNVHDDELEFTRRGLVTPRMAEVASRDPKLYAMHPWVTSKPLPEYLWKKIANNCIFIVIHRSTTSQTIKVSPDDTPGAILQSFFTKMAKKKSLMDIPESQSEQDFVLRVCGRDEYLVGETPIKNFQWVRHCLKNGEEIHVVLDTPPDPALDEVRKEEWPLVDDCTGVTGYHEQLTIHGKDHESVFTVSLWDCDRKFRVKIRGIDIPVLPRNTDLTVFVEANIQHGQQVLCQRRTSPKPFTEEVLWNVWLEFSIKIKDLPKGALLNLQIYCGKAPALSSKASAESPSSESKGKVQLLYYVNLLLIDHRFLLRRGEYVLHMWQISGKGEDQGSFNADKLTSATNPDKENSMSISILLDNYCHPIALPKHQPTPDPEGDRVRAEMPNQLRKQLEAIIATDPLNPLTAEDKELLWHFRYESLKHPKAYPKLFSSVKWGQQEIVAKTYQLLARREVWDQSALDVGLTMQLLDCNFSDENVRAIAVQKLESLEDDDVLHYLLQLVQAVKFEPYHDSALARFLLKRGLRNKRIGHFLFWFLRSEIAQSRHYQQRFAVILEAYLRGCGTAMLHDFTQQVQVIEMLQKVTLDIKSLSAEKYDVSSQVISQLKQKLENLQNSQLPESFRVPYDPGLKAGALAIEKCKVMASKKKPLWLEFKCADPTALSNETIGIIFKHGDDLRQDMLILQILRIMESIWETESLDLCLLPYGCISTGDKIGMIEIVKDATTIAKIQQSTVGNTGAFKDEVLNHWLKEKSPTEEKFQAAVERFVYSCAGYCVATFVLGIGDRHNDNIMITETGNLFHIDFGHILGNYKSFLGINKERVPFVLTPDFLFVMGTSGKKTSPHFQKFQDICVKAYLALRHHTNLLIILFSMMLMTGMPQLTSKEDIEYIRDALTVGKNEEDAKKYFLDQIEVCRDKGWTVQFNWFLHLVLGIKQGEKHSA
Protocol: as §1, §2, §3

PI3K-δ = PI3K-δ (Homo sapiens, UniProt O00329); test: PI3K Inhibition Assay; format: biochemical
Chain of PI3K-δ (O00329 whole entry, species assumed): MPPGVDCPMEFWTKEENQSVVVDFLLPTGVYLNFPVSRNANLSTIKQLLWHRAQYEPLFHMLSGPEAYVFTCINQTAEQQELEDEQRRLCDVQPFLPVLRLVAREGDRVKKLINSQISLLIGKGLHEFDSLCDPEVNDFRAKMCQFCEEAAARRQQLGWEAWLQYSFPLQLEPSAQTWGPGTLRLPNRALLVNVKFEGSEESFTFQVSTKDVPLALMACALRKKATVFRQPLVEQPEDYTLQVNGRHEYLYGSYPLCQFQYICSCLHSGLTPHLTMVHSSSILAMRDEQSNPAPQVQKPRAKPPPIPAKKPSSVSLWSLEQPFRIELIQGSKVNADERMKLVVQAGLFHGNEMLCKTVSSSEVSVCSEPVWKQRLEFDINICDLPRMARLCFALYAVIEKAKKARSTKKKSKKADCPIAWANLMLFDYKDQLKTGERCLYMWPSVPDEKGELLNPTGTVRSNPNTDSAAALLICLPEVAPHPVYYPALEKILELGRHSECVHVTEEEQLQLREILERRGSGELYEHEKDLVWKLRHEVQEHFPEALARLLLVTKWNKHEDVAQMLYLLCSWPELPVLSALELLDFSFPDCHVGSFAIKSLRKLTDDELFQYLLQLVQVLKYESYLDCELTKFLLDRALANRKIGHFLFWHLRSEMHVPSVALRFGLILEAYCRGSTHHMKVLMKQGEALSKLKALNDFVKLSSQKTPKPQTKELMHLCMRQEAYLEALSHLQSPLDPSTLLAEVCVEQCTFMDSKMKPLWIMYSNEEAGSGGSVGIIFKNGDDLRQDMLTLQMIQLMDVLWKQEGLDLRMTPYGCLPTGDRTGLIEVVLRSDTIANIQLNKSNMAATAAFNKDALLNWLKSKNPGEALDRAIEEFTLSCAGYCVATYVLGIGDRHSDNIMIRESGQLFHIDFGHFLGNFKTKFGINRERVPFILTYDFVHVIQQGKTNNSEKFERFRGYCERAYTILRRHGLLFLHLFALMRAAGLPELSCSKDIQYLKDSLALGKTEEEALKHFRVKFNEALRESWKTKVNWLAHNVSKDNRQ
Chain of PI3K-δ (P27986 whole entry partner, species assumed): as the sequence (P27986 whole entry partner, species assumed) above
Protocol: as §1, §2, §3

[1] = Intravenous bolus pharmacokinetics; format: in vivo, Rat; details: for AUC: rat, iv, 0.5 mg/kg
From the text: Following intravenous administration of a single bolus dose, Compound 1 had low systemic clearance and a long half-life in all species tested. […] The volume of distribution was greater than the total body water, indicating distribution of Compound 1 to tissues.

[2] = test system: collagen-induced arthritis (CIA); test: therapeutic mouse collagen-induced arthritis (CIA) model; format: in vivo; set-up: Histopathology Summed Score, Knees / Therapeutic Paw Score AUC / Histopathology Summed Score, Six Joints / Histopathology Summed Score, Paws: scale not given here; details: for All Paw Score AUC / Histopathology Summed Score, Knees / Histopathology Summed Score, Paws / Histopathology Summed Score, Six Joints / Prophylactic Paw Score AUC / Therapeutic Paw Score AUC: 10 days; for Arthritis scores measured daily, all paws (FIG. 1): *d2-11, vs vehicle
Protocol: Compound 1 was tested in the therapeutic mouse collagen-induced arthritis (CIA) model at 2.5 mg/kg BID (5 mg/kg/day), 5 mg/kg BID (10 mg/kg/day) or 10 mg/kg BID (20 mg/kg/day). Fostamatinib, a Syk small molecule inhibitor used as a reference standard, was dosed orally at 30 mg/kg BID (60 mg/kg/day). Compounds were dosed for 10 days in a 12/12-hour BID dosing regimen until the end of the study. Compound 1 was formulated in 0.2% MC, 1% SLS. Dosing volume was 10 mL/kg. Terminal plasma samples were collected at 2, 4 and 12 hours post last dose. All four paws and both knees were collected and processed for histopathology.

[3] = Rat, single IV bolus, 0.5 mg/kg nominal
[4] = plasma, Rat, single IV bolus, 0.5 mg/kg nominal

Chain of PI3K-α (P42336 whole entry, species assumed, canonical isoform): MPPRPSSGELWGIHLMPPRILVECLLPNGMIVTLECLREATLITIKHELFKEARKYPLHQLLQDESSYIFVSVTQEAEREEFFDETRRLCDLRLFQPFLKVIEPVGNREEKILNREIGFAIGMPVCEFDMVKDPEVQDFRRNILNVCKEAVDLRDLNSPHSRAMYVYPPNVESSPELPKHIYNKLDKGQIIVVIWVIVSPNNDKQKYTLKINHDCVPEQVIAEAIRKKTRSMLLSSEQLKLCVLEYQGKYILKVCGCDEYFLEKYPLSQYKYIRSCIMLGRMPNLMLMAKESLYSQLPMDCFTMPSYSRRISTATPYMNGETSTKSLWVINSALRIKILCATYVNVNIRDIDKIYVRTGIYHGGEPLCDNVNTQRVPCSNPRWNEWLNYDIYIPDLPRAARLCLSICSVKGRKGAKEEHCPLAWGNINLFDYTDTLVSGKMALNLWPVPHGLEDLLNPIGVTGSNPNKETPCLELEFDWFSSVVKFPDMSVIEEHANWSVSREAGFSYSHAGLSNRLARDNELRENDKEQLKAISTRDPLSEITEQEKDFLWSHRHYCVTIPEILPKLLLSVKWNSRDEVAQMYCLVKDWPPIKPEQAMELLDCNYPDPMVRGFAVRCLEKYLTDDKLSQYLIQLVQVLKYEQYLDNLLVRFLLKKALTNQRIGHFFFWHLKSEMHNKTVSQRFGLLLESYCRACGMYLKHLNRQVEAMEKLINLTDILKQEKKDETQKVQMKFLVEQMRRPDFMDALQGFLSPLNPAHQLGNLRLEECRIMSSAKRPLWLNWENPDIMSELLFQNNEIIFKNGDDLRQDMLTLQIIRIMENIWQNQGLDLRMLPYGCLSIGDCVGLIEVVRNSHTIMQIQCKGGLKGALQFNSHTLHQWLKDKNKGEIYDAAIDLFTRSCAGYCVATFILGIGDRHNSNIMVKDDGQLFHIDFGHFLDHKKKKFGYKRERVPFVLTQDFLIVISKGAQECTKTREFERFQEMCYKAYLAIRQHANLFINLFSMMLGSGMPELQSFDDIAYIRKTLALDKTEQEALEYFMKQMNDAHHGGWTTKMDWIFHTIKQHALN
Chain of PI3K-α (P27986 whole entry partner, species assumed, canonical isoform): as the sequence (P27986 whole entry partner, species assumed) above

Cc1cc(-c2cncc([C@@H](O)C(F)(F)F)c2)nc2c1C(=O)N(c1cnn(CC(F)F)c1)C2(C)C [Compound 1, (R)-6-(1-(2,2-difluoroethyl)-1H-pyrazol-4-yl)-4,7,7-trimethyl-2-(5-(2,2,2-trifluoro-1-hydroxyethyl)pyridin-3-yl)-6,7-dihydro-5H-pyrrolo[3,4-b]pyridin-5-one]
Ki (PI3K-α; PI3Kα): 280 ± 90 nM | Fold Selectivity (PI3K-α; PI3Kγ over PI3Kα): 30 fold | Ki (PI3K-β; PI3Kβ): 220 ± 30 nM | Fold Selectivity (PI3K-β; PI3Kγ over PI3Kβ): 26 fold | Ki (PI3K-γ; PI3K-gamma, ATP-competitive): 8 nM | selectivity for PI3K-gamma (PI3K-γ; against PI3K-alpha, PI3K-beta and PI3K-delta isoforms): greater than 15 fold | Fold Selectivity (PI3K-δ; PI3Kγ over PI3Kδ): 19 fold | Ki (PI3K-δ; PI3Kδ): 160 ± 50 nM | % HBF (hepatic blood flow) [1, 3]: ~3.6% | DN_AUCINF [1, 3]: 6.2 µg·h/mL | AUC(0-inf) [1, 4]: 3100 ng·h/mL | half-life [1, 4]: 492 min | clearance ([1]; plasma, Rat, single IV bolus, 0.5 mg/kg nominal, read-out: CL): 2.8 mL/min/kg | Vd ([1]; plasma, Rat, single IV bolus, 0.5 mg/kg nominal, read-out: Vss): 1.8 L/kg | AUC ([1]; plasma, Intravenous bolus, 0.5 mg/kg nominal dose, read-out: Rat IV AUC): 3100 ng·h/mL | AUC ([1]; plasma, Rat, single IV bolus, 0.5 mg/kg nominal, read-out: AUCALL): 2690 ng·h/mL | reduction of arthritis scores AUC, prophylactic paws only ([2]; 2.5 mg/kg BID): 42% | reduction of clinical arthritis scores AUC vs vehicle, all paws ([2]; 2.5 mg/kg BID): 28% | All Paw Score AUC ([2]; 2.5 mg/kg BID): *22.76 | Histopathology Summed Score, Knees ([2]; 2.5 mg/kg BID): 6.83 | Histopathology Summed Score, Paws ([2]; 2.5 mg/kg BID): 8.14 | Histopathology Summed Score, Six Joints ([2]; 2.5 mg/kg BID): 7.70 | Prophylactic Paw Score AUC ([2]; 2.5 mg/kg BID): *41.35 | Therapeutic Paw Score AUC ([2]; 2.5 mg/kg BID): 49.25 | clinical arthritis scores, prophylactic paws (FIG. 3) ([2]; 2.5 mg/kg BID, *d2, 4-11): significantly reduced | Arthritis scores measured daily, all paws (FIG. 1) ([2]; 2.5 mg/kg BID): significantly reduced toward normal | reduction of arthritis scores AUC, prophylactic paws only ([2]; 5 mg/kg BID): 81% | reduction of clinical arthritis scores AUC vs vehicle, all paws ([2]; 5 mg/kg BID): 63% | All Paw Score AUC ([2]; 5 mg/kg BID): *11.84 | Histopathology Summed Score, Knees ([2]; 5 mg/kg BID): *2.53 | Histopathology Summed Score, Paws ([2]; 5 mg/kg BID): *3.64 | Histopathology Summed Score, Six Joints ([2]; 5 mg/kg BID): *3.27 | Prophylactic Paw Score AUC ([2]; 5 mg/kg BID): *13.35 | Therapeutic Paw Score AUC ([2]; 5 mg/kg BID): 34.00 | clinical arthritis scores, prophylactic paws (FIG. 3) ([2]; 5 mg/kg BID, *d2-11): significantly reduced | Arthritis scores measured daily, all paws (FIG. 1) ([2]; 5 mg/kg BID): significantly reduced toward normal | clinical arthritis scores, therapeutic paws (FIG. 2) ([2]; 5 mg/kg BID, *d5-11): significantly reduced | reduction of arthritis scores AUC, prophylactic paws only ([2]; 10 mg/kg BID): 98% | reduction of arthritis scores AUC, therapeutic paws only ([2]; 10 mg/kg BID): 79% | reduction of clinical arthritis scores AUC vs vehicle, all paws ([2]; 10 mg/kg BID): 89% | All Paw Score AUC ([2]; 10 mg/kg BID): *3.34 | Histopathology Summed Score, Knees ([2]; 10 mg/kg BID): *0.68 | Histopathology Summed Score, Paws ([2]; 10 mg/kg BID): *0.79 | Histopathology Summed Score, Six Joints ([2]; 10 mg/kg BID): *0.75 | Prophylactic Paw Score AUC ([2]; 10 mg/kg BID): *1.60 | Therapeutic Paw Score AUC ([2]; 10 mg/kg BID): *11.75 | clinical arthritis scores, prophylactic paws (FIG. 3) ([2]; 10 mg/kg BID, *d2-11): significantly reduced | clinical arthritis scores, therapeutic paws (FIG. 2) ([2]; 10 mg/kg BID, *d2-11): significantly reduced | Arthritis scores measured daily, all paws (FIG. 1) ([2]; 10 mg/kg BID): significantly reduced toward normal
